Data from patent publication US10287255B2, “Compounds as histone deacetylase 6 inhibitors and pharmaceutical compositions comprising the same” (CHONG KUN DANG PHARMACEUTICAL CORP., priority 2014, dated 2019).

Legend:
human recombinant HDAC1 = target: T1, human recombinant HDAC1 (Homo sapiens, UniProt Q13547); assay: HDAC1 enzyme activity inhibition assay (in vitro, fluorimetric); type: biochemical; conditions: human recombinant HDAC1, fluorimetric kit, 30° C. 60 minutes
T1 construct: purchased Enzo Life Science BML-SE456
In short: (§1)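 IC50 values derive from fluorescence (Ex 360, Em 460) after developer treatment (30 min) of reactions of recombinant human HDAC1 or HDAC6 with 10 μM Fluor de Lys-SIRT1 substrate (60 min, 30 °C). Compounds were serially diluted 5-fold; 0.3 μg enzyme was used for HDAC1, with HDAC6 tested identically.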

human recombinant HDAC6 = target: T2, human recombinant HDAC6 (Homo sapiens, UniProt Q9UBN7); assay: HDAC6 enzyme activity inhibition assay (in vitro, fluorimetric); type: biochemical; conditions: for HDAC6 selectivity (fold): HDAC6 selectivity over HDAC1; for IC50: human recombinant HDAC6, fluorimetric kit, same protocol as HDAC1
T2 construct: purchased Calbiochem 382180
T2 sequence (Q9UBN7 1-1215): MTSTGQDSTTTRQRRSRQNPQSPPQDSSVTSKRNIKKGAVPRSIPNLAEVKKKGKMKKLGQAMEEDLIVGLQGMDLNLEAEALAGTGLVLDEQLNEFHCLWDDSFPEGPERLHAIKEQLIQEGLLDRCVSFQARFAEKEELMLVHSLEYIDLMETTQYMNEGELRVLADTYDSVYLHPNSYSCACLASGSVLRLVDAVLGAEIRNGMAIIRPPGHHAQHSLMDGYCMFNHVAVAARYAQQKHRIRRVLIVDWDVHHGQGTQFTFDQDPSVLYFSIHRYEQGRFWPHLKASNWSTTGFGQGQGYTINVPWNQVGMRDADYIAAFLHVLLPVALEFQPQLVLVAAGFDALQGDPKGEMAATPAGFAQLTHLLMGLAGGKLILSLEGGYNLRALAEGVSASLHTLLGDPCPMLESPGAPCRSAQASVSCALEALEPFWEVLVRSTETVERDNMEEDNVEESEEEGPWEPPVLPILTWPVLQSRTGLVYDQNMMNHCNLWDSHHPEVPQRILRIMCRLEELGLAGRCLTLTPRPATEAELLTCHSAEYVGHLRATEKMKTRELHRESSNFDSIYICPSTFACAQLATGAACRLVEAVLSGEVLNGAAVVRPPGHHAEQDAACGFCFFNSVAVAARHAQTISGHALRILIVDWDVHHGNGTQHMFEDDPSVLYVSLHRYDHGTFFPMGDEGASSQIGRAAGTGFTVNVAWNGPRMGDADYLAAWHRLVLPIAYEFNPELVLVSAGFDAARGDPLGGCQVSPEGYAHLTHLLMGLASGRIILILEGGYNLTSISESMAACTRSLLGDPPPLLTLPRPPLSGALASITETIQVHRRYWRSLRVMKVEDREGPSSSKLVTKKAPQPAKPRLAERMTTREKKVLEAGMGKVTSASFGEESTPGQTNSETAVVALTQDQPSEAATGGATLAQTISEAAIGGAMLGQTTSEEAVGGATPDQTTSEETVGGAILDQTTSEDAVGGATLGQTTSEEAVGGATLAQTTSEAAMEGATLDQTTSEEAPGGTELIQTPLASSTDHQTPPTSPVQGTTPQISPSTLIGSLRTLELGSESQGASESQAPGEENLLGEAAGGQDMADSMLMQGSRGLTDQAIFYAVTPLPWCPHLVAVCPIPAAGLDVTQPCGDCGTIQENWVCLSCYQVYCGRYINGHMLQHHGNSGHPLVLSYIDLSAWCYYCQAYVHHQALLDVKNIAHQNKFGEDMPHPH
In short: as §1

T1 sequence (Q13547 whole entry): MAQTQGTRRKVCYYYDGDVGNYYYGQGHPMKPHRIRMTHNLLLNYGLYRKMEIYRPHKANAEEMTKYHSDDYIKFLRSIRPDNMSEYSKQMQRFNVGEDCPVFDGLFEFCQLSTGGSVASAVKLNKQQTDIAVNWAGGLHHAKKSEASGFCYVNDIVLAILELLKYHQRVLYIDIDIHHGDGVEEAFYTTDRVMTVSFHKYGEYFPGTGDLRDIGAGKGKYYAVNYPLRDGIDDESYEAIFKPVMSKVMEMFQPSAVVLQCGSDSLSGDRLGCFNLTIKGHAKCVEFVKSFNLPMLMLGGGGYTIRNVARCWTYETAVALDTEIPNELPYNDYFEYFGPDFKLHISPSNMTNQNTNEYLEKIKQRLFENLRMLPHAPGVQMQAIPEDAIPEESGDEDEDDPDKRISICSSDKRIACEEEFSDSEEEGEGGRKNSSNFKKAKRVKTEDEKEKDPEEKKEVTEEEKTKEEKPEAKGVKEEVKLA

| IC50 (human recombinant HDAC1) [nM] | HDAC6 selectivity (fold) (human recombinant HDAC6) | IC50 (human recombinant HDAC6) [nM] | Structure (SMILES) |
| --- | --- | --- | --- |
| 11200 | 78 | 144 | C[C@@H]1CN(Cc2ccccc2)C[C@H](C)N1Cc1ccc(C(=O)NO)cc1 [Compound 081, 4-(((2S,6R)-4-benzyl-2,6-dimethylpiperazin-1-yl)methyl)-N-hydroxybenzamide] |
| 5200 | 32 | 161 | C[C@@H]1CN(Cc2ccc(C(=O)NO)cc2)C[C@H](C)N1C(=O)C1CCCO1 (stereo partly drawn) [Compound 402, 4-(((3R,5S)-3,5-dimethyl-4-(tetrahydrofuran-2-carbonyl)piperazin-1-yl)methyl)-N-hydroxybenzamide] |
| > 10000 | >1000 | 10 | C[C@@H]1CN(Cc2ccc(C(=O)NO)cc2F)C[C@H](C)N1Cc1cccc(CN2CCOCC2)c1 [Compound 696, 4-(((3R,5S)-3,5-dimethyl-4-(3-(morpholinomethyl)benzyl)piperazin-1-yl)methyl)-3-fluoro-N-hydroxybenzamide] |
| > 10000 | >125 | 80 | C[C@@H]1CN(Cc2ccc(C(=O)NO)cc2)C[C@H](C)N1CC(F)(F)F [Compound 149, 4-(((3R,5S)-3,5-dimethyl-4-(2,2,2-trifluoroethyl)piperazin-1-yl)methyl)-N-hydroxybenzamide] |
| 5500 | 15 | 369 | C[C@@H]1CN(Cc2cccc(C(F)(F)F)c2)C[C@H](C)N1Cc1ccc(C(=O)NO)cc1 [Compound 298, 4-(((2S,6R)-2,6-dimethyl-4-(3-(trifluoromethyl)benzyl)piperazin-1-yl)methyl)-N-hydroxybenzamide] |
| 3400 | 26 | 129 | C[C@@H]1CN(Cc2ccc(C(=O)NO)cc2)C[C@H](C)N1C(=O)c1cccc(-c2cccnc2)c1 [Compound 246, 4-(((3R,5S)-3,5-dimethyl-4-(3-(pyridin-3-yl)benzoyl)piperazin-1-yl)methyl)-N-hydroxybenzamide] |
| 5100 | 67 | 75 | C[C@@H]1CN(S(=O)(=O)c2ccc(Cl)cc2)C[C@H](C)N1Cc1ccc(C(=O)NO)cc1 [Compound 109, 4-(((2S,6R)-4-((4-chlorophenyl)sulfonyl)-2,6-dimethylpiperazin-1-yl)methyl)-N-hydroxybenzamide] |
| 1600 | 27 | 60 | C[C@@H]1CN(S(=O)(=O)c2ccccc2)C[C@H](C)N1Cc1ccc(C(=O)NO)cc1 [Compound 105, 4-(((2S,6R)-2,6-dimethyl-4-(phenylsulfonyl)piperazin-1-yl)methyl)-N-hydroxybenzamide] |
| 5000 | 59 | 85 | C[C@@H]1CN(S(=O)(=O)c2ccccc2Cl)C[C@H](C)N1Cc1ccc(C(=O)NO)cc1 [Compound 110, 4-(((2S,6R)-4-((2-chlorophenyl)sulfonyl)-2,6-dimethylpiperazin-1-yl)methyl)-N-hydroxybenzamide] |
| > 10000 |  | 83 | C[C@@H]1CN(Cc2ccc(C(=O)NO)cc2)C[C@H](C)N1Cc1cccc(CN2CCCCC2)c1 [Compound 382, 4-(((3R,5S)-3,5-dimethyl-4-(3-(piperidin-1-ylmethyl)benzyl)piperazin-1-yl)methyl)-N-hydroxybenzamide] |
| 800 | 3 | 249 | C[C@@H]1CN(C(=O)Nc2ccc3c(ccn3C)c2)C[C@H](C)N1Cc1ccc(C(=O)NO)cc1 [Compound 185, (3R,5S)-4-(4-(hydroxycarbamoyl)benzyl)-3,5-dimethyl-N-(1-methyl-1 H -indol-5-yl)piperazine-1-carboxamide] |
| 13100 | 79 | 166 | C[C@@H]1CN(C(=O)c2ccccc2Cl)C[C@H](C)N1Cc1ccc(C(=O)NO)cc1 [Compound 108, 4-(((2S,6R)-4-(2-chlorobenzoyl)-2,6-dimethylpiperazin-1-yl)methyl)-N-hydroxybenzamide] |
| 9000 | 109 | 83 | C[C@@H]1CN(Cc2ccc(C(=O)NO)cc2)C[C@H](C)N1Cc1ccc(OCC2CCN(CC(C)(C)F)CC2)cc1 [Compound 388, 4-(((3R,5S)-4-(4-((1-(2-fluoro-2-methylpropyl)piperidin-4-yl)methoxy)benzyl)-3,5-dimethylpiperazin-1-yl)methyl)-N-hydroxybenzamide] |
| 800 | 10 | 77 | Cc1cccc(NC(=O)N2C[C@@H](C)N(Cc3ccc(C(=O)NO)cc3)[C@@H](C)C2)c1 [Compound 167, (3R,5S)-4-(4-(hydroxycarbamoyl)benzyl)-3,5-dimethyl-N-m-tolylpiperazine-1-carboxamide] |
| > 10000 | >28 | 358 | C[C@@H]1CN(Cc2ccc(C(=O)NO)cc2)C[C@H](C)N1Cc1cc(F)ccc1F [Compound 212, 4-(((3R,5S)-4-(2,5-difluorobenzyl)-3,5-dimethylpiperazin-1-yl)methyl)-N-hydroxybenzamide] |
| 3200 | 53 | 61 | C[C@@H]1CN(Cc2ccc(C(=O)NO)cc2)C[C@H](C)N1C(=O)c1cc[nH]n1 [Compound 403, 4-(((3R,5S)-3,5-dimethyl-4-(1H-pyrazole-3-carbonyl)piperazin-1-yl)methyl)-N-hydroxybenzamide] |
| 8800 | 177 | 50 | Cc1ccccc1NC(=O)N1[C@H](C)CN(Cc2ccc(C(=O)NO)cc2)C[C@@H]1C [Compound 160, (2S,6R)-4-(4-(hydroxycarbamoyl)benzyl)-2,6-dimethyl-N-o-tolylpiperazine-1-carboxamide] |
| > 10000 | >61 | 165 | C[C@@H]1CN(Cc2ccc(C(=O)NO)cc2)C[C@H](C)N1Cc1cc(C(F)(F)F)cc(C(F)(F)F)c1 [Compound 214, 4-(((3R,5S)-4-(3,5-bis(trifluoromethyl)benzyl)-3,5-dimethylpiperazin-1-yl)methyl)-N-hydroxybenzamide] |
| 5000 | 1000 | 5 | C[C@@H]1CN(Cc2ccccc2-c2cccnc2)C[C@H](C)N1Cc1ccc(C(=O)NO)cc1 [Compound 349, 4-(((2S,6R)-2,6-dimethyl-4-(2-(pyridin-3-yl)benzyl)piperazin-1-yl)methyl)-N-hydroxybenzamide] |
| 11900 | 154 | 77 | C[C@@H]1CN(Cc2ccc(C(=O)NO)cc2)C[C@H](C)N1Cc1cccc(CN2CCN(CC(F)(F)F)CC2)c1 [Compound 453, 4-(((3R,5S)-3,5-dimethyl-4-(3-((4-(2,2,2-trifluoroethyl)piperazin-1-yl)methyl)benzyl)piperazin-1-yl)methyl)-N-hydroxybenzamide] |
| 3400 | 81 | 42 | C[C@@H]1CN(Cc2ccc(C(=O)NO)cc2)C[C@H](C)N1C(=O)c1cccc(CN2CCN(C)CC2)c1 [Compound 432, 4-(((3R,5S)-3,5-dimethyl-4-(3-((4-methylpiperazin-1-yl)methyl)benzoyl)piperazin-1-yl)methyl)-N-hydroxybenzamide] |
| 5500 | 48 | 113 | C[C@@H]1CN(Cc2ccccc2Cl)C[C@H](C)N1Cc1ccc(C(=O)NO)cc1 [Compound 118, 4-(((2S,6R)-4-(2-chlorobenzyl)-2,6-dimethylpiperazin-1-yl)methyl)-N-hydroxybenzamide] |
| 20000 | 690 | 29 | C[C@@H]1CN(Cc2ccc(C(=O)NO)cc2)C[C@H](C)N1Cc1ccc(CN2CCN(C)CC2)cc1 [Compound 468, 4-(((3R,5S)-3,5-dimethyl-4-(4-((4-methylpiperazin-1-yl)methyl)benzyl)piperazin-1-yl)methyl)-N-hydroxybenzamide] |
